Test [1] concerns the target T1, Ornithine decarboxylase (Mus musculus) (UniProt P00860).
T1 sequence (whole entry): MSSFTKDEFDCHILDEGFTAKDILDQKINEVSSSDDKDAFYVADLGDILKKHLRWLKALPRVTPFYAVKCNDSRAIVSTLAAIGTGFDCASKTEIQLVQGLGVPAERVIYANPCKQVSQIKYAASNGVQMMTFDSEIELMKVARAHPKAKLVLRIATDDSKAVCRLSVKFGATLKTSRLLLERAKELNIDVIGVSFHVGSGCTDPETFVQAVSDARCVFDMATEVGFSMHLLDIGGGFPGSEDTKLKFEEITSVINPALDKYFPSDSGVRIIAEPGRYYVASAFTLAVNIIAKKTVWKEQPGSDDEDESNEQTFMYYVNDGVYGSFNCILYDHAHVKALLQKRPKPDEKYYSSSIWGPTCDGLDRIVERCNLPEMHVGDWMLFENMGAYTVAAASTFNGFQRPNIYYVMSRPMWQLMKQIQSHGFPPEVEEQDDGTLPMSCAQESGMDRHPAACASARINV
Nature of the test: Inhibition of ornithine decarboxylase activity in hairless mouse skin in vivo. Format: organism-based.

The target in test [2] is T2, Retinoic acid receptor alpha (Homo sapiens, UniProt P10276).
T2 sequence (P10276 whole entry): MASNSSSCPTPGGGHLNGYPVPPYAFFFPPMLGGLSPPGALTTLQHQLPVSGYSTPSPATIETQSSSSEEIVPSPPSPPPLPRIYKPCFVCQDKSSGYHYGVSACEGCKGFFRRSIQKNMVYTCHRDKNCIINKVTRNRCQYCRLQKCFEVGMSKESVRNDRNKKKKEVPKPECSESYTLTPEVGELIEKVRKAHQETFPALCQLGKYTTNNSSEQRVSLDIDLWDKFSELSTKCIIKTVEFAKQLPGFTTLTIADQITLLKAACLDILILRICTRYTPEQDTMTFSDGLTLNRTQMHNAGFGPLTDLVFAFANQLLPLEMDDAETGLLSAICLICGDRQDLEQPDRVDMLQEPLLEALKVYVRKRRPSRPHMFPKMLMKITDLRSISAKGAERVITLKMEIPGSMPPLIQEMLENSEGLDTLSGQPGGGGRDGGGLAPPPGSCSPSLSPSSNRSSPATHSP
In words: Transactivation potency for Retinoic acid receptor alpha; Not active.

Test [3] deals with T2, Retinoic acid receptor alpha. In words: Binding affinity for Retinoic acid receptor alpha.
Test [4] addresses T3, Retinoic acid receptor beta (Homo sapiens, UniProt P10826).
T3 sequence (P10826 whole entry): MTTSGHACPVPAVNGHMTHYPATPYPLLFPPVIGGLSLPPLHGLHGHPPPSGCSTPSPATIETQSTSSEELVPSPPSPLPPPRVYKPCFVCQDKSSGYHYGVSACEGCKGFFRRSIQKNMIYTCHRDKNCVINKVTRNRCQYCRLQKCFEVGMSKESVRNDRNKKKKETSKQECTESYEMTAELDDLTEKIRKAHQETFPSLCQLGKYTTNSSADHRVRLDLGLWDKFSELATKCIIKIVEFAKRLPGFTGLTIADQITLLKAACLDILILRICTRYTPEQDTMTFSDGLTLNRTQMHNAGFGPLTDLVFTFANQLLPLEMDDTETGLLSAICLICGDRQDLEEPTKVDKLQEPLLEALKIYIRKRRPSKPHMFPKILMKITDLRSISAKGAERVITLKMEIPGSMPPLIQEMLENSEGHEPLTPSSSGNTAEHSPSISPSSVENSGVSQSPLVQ
Nature of the test: Transactivation potency for Retinoic acid receptor beta.

The target in test [5] is T4, Retinoic acid receptor gamma (Homo sapiens, UniProt P13631).
T4 sequence (P13631 whole entry): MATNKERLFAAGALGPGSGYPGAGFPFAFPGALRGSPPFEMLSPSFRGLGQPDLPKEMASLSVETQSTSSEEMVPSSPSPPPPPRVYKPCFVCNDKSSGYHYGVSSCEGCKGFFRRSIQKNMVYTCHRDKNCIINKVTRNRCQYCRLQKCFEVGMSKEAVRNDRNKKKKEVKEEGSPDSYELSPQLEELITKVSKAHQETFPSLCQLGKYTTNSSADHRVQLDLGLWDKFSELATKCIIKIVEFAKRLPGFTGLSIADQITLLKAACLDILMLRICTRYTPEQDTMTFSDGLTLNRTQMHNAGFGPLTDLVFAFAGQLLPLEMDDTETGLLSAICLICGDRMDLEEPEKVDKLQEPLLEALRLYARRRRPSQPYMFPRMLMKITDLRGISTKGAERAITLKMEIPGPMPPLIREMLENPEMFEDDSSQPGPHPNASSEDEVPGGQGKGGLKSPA
In words: Transactivation potency for Retinoic acid receptor gamma.

In test [6] the target is T4, Retinoic acid receptor gamma. In words: Binding affinity for Retinoic acid receptor gamma.
Test [7] addresses T3, Retinoic acid receptor beta. In words: Binding affinity for Retinoic acid receptor beta.
The target in test [8] is T2, Retinoic acid receptor alpha. In words: Binding affinity for Retinoic acid receptor alpha; Not active.
The target in test [9] is T3, Retinoic acid receptor beta. Nature of the test: Transactivation potency for Retinoic acid receptor beta; Not active.
Test [10] has as its target T4, Retinoic acid receptor gamma. In words: Transactivation potency for Retinoic acid receptor gamma; Not active.
Test [11] concerns the target T2, Retinoic acid receptor alpha. In words: Transactivation potency for Retinoic acid receptor alpha.

The record followed here is ChEMBL document CHEMBL1130529, “Synthesis and biological activity of 1,2,3,4-tetrahydroquinoline and 3,4-(1H)-dihydroquinolin-2-one analogs of retinoic acid” (Bioorg Med Chem Lett, 1997).

In [1], `CCOC(=O)c1ccc(C#Cc2ccc3c(c2)C(C)(C)CC(=O)N3)cc1` returned an IC60 above 300 nM.
As usually defined, the EC50 is the midpoint of the concentration-response curve. One may read the Kd as the constant that tells how readily two partners part at equilibrium. A lower Kd goes with tighter binding. In the case of `CCCCCCCN1CCC(C)(C)c2cc(C#Cc3ccc(C(=O)O)cc3)ccc21`, the EC50 result was “Not Active” in [2], 280 nM in test [4] and 260 nM in [5]. In addition, the Kd in test [3], in test [6] and in [7] was above 1000 nM each time.
Take `CC1(C)CCNc2cc(C#Cc3ccc(C(=O)O)cc3)ccc21`: the results for the Kd result in test [8], in test [6] and in test [7] were “Not Active”, 233 nM and 211 nM, respectively. Also, the EC50 result is “Not Active” in test [2], 36 nM in test [4] and 54 nM in test [5].
`CCOC(=O)c1ccc(C#Cc2ccc3c(c2)N(C(C)C)CCC3(C)C)cc1` had an IC60 in test [1] below 0.1 nM.
The same measure, in the same setting: to `CCOC(=O)c1ccc(C#Cc2ccc3c(c2)C(C)(C)CCN3C(C)C)cc1` belongs 0.4 nM; to `CCOC(=O)c1ccc(C#Cc2ccc3c(c2)C(C)(C)CCN3)cc1`, 5 nM.
As to `CC(C)N1CCC(C)(C)c2ccc(C#Cc3ccc(C(=O)O)cc3)cc21`, the values for the EC50 in test [2] (read-out: EC50), in test [4] and in [5] were 17 nM, 3 nM and 3 nM, respectively. Besides, the equilibrium dissociation constant (Kd) in [3] worked out at 52 nM; in test [6], 52 nM; in [7] it was 18 nM.
On to `CCOC(=O)c1ccc(/C=C(\C)c2ccc3c(c2)C(C)(C)CCC3(C)C)cc1`, for which the IC60 in test [1] stood at 0.33 nM.
On the same count and under the same terms, the figure for `CCCCCCCN1CCC(C)(C)c2cc(C#Cc3ccc(C(=O)OCC)cc3)ccc21` is above 300 nM.
Turning to `CC(C)N1CCC(C)(C)c2cc(C#Cc3ccc(C(=O)O)cc3)ccc21`, the EC50 result in [2] is “Not Active”; in test [4] it was 10 nM; in test [5], 6 nM. Further, the Kd was 627 nM in [3], 72 nM in test [6] and 60 nM in test [7].
In [1], `CCOC(=O)c1ccc(C#Cc2ccc3c(c2)NC(=O)CC3(C)C)cc1` showed an IC60 above 300 nM.
For the molecule `CC1(C)CC(=O)Nc2cc(C#Cc3ccc(C(=O)O)cc3)ccc21`, the figures for the half-maximal effective concentration (EC50) result in [2], in [4] and in [5] were “Not Active”, 1000 nM and 200 nM, respectively. The dissociation constant Kd in test [3], in test [6] and in test [7] was above 1000 nM in each case.
The molecule `CC1=C(/C=C/C(C)=C/C=C/C(C)=C/C(=O)O)C(C)(C)CCC1` gave an IC60 in test [1] of 1.4 nM.
`CCOC(=O)c1ccc(C#Cc2ccc3c(c2)N(C(C)C)C(=O)CC3(C)C)cc1` gave an IC60 in [1] of 2.9 nM.
Consider `CC1(C)CC(=O)Nc2ccc(C#Cc3ccc(C(=O)O)cc3)cc21`, for which the EC50 entry in [2], in [9] and in test [10] was “Not Active” throughout. The dissociation constant Kd in test [3], in test [6] and in [7] was above 1000 nM in each case.
For `CCOC(=O)c1ccc(C#Cc2ccc3c(c2)C(C)(C)CC(=O)N3C(C)C)cc1`, the IC60 in test [1] was 6 nM.
In the case of `CC(C)N1C(=O)CC(C)(C)c2cc(C#Cc3ccc(C(=O)O)cc3)ccc21`, the EC50 result is “Not Active” in test [2], 4 nM in [4] and 4 nM in [5]. In addition, the Kd came to 136 nM in test [3], 17 nM in test [6] and 17 nM in test [7].
In the case of `CC(C)N1C(=O)CC(C)(C)c2ccc(C#Cc3ccc(C(=O)O)cc3)cc21`, the values for the EC50 entry in [2], in test [4] and in test [5] were “Not Active”, 4 nM and 20 nM, respectively. Besides, the results for the Kd in [3], in test [6] and in test [7] were 58 nM, 23 nM and 18 nM, respectively.
For the molecule `CCOC(=O)c1ccc(C#Cc2ccc3c(c2)NCCC3(C)C)cc1`, the IC60 in test [1] is 7 nM.
As for `CC1(C)CCNc2ccc(C#Cc3ccc(C(=O)O)cc3)cc21`, the figures for the Kd in test [3], in test [6] and in test [7] were 5200 nM, 2420 nM and 714 nM, respectively. Further, the figures for the EC50 in test [4], in [5] and in test [11] were 170 nM, 130 nM and 2300 nM, respectively.
